Assay results reported in US10485800B2, “Mixed lineage kinase inhibitors for HIV/AIDS therapies” (UNIVERSITY OF ROCHESTER, priority 2012, dated 2019).
Read-outs that look alike come from different tables or passages of the source.

Target: MLK3 (Homo sapiens (Human), UniProt Q16584)
Assay: Radiometric filter plate MLK3 assay
Assay type: biochemical
Conditions: read-out: MK3 IC50
Procedure: After a twenty minute incubation, the reactions were washed through filter plates and read on a scintillation counter. Results are shown in Table 9 below, in which +++ indicates ≤0.1 μM, ++ indicates >0.1 μM and ≤1 μM, and + indicates >1 μM.

[1] = 2 μM cold ATP (Km), 1 μM inactive MKK7b, twenty minute incubation

Chain of MLK3 (Q16584 whole entry): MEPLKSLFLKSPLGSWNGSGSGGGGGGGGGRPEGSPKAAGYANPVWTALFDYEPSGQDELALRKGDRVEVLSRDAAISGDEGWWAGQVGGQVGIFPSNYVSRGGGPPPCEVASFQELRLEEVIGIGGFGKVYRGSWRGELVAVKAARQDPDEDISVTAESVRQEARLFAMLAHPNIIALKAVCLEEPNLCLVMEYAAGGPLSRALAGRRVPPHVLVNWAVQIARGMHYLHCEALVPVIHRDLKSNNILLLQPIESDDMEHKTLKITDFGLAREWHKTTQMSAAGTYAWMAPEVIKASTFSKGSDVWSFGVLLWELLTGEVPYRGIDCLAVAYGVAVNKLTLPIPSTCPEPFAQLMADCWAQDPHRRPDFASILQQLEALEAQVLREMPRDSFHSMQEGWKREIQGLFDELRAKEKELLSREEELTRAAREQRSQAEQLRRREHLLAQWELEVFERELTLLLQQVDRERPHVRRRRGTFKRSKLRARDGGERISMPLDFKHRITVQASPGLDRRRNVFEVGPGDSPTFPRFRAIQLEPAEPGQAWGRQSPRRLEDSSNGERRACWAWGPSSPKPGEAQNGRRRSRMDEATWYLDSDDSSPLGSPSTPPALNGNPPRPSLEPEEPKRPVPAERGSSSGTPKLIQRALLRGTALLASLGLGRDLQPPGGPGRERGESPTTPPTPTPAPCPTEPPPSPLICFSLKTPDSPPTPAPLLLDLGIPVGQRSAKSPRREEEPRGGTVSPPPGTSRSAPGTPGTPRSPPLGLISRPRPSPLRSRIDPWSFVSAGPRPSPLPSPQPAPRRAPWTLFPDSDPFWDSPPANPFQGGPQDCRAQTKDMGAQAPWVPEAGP

Structure (SMILES)	IC50 [1] [nM]	IC50 [nM]
COc1ccc(-c2cnc3[nH]c(=O)n(-c4ccc5[nH]ccc5c4)c3n2)cc1F [Example 49, 6-(3-fluoro-4-methoxyphenyl)-1-(1H-indol-5-yl)-1H-imidazo[4,5-b]pyrazin-2(3H)-one]	> 1000	–
O=c1[nH]c2ncc(-c3ccc4cc[nH]c4c3)nc2n1-c1ccc2[nH]ccc2c1 [Example 56, 1-(1H-indol-5-yl)-6-(1H-indol-6-yl)-1H-imidazo[4,5-b]pyrazin-2(3H)-one]	> 1000	–
O=c1[nH]c2ncc(-c3cc(F)cc(F)c3)nc2n1-c1ccc2[nH]ccc2c1 [Example 61, 6-(3,5-difluorophenyl)-1-(1H-indol-5-yl)-1H-imidazo[4,5-b]pyrazin-2(3H)-one]	> 1000	–
COc1cc(OC)cc(-c2cnc3[nH]c(=O)n(-c4ccc5[nH]ccc5c4)c3n2)c1 [Example 65, 6-(3,5-dimethoxyphenyl)-1-(1H-indol-5-yl)-1H-imidazo[4,5-b]pyrazin-2(3H)-one]	> 1000	–
CN1CCN(c2cc(-c3cnc4[nH]c(=O)n(-c5ccc6[nH]ccc6c5)c4n3)ccn2)CC1 [Example 66, 1-(1H-indol-5-yl)-6-(2-(4-methylpiperazin-1-yl)pyridin-4-yl)-1H-imidazo[4,5-b]pyrazin-2(3H)-one]	> 1000	–
COc1ccc(-n2c(=O)[nH]c3ncc(-c4ccc(OC)c(OC)c4)nc32)cc1 [Example 69, 6-(3,4-dimethoxyphenyl)-1-(4-methoxyphenyl)-1H-imidazo[4,5-b]pyrazin-2(3H)-one]	> 1000	–
COc1ccc(-n2c(=O)[nH]c3ncc(-c4ccc(O)cc4)nc32)cc1 [Example 70, 6-(4-hydroxyphenyl)-1-(4-methoxyphenyl)-1H-imidazo[4,5-b]pyrazin-2(3H)-one]	> 1000	–
COc1ccc(-n2c(=O)[nH]c3ncc(-c4ccncc4)nc32)cc1 [Example 71, 1-(4-methoxyphenyl)-6-(pyridin-4-yl)-1H-imidazo[4,5-b]pyrazin-2(3H)-one]	> 1000	–
Cc1cc2cc(-n3c(=O)[nH]c4ncc(-c5cc(Cl)cc(Cl)c5)nc43)ccc2[nH]1 [Example 73, 6-(3,5-dichlorophenyl)-1-(2-methyl-1H-indol-5-yl)-1H-imidazo[4,5-b]pyrazin-2(3H)-one]	> 1000	–
COc1ccc(-c2cnc3[nH]c(=O)n(C4CCCC4)c3n2)cc1OC [Example 75, 1-cyclopentyl-6-(3,4-dimethoxyphenyl)-1H-imidazo[4,5-b]pyrazin-2(3H)-one]	> 1000	–
O=c1[nH]c2ncc(-c3ccncc3)nc2n1C1CCCC1 [Example 77, 1-cyclopentyl-6-(pyridin-4-yl)-1H-imidazo[4,5-b]pyrazin-2(3H)-one]	> 1000	–
O=c1[nH]c2ncc(-c3cc(Cl)cc(Cl)c3)nc2n1CC1CC1 [Example 80, 1-(cyclopropylmethyl)-6-(3,5-dichlorophenyl)-1H-imidazo[4,5-b]pyrazin-2(3H)-one]	> 1000	–
O=c1[nH]c2ncc(-c3ccc(O)cc3)nc2n1CC1CC1 [Example 81, 1-(cyclopropylmethyl)-6-(4-hydroxyphenyl)-1H-imidazo[4,5-b]pyrazin-2(3H)-one]	> 1000	–
O=c1[nH]c2ncc(-c3ccncc3)nc2n1CC1CC1 [Example 82, 1-(cyclopropylmethyl)-6-(pyridin-4-yl)-1H-imidazo[4,5-b]pyrazin-2(3H)-one]	> 1000	–
COc1cc(-c2cnc3[nH]c(=O)n(-c4ccc5[nH]ncc5c4)c3n2)cc(OC)c1OC [Example 83, 1-(1H-indazol-5-yl)-6-(3,4,5-trimethoxyphenyl)-1H-imidazo[4,5-b]pyrazin-2(3H)-one]	–	100 to 1000
Cc1cc2cc(-n3c(=O)[nH]c4ncc(-c5ccncc5)nc43)ccc2[nH]1 [Example 85, 1-(2-methyl-1H-indol-5-yl)-6-(pyridin-4-yl)-1H-imidazo[4,5-b]pyrazin-2(3H)-one]	> 1000	–
O=c1[nH]c2ncc(-c3ccc(N4CCOCC4)cc3)nc2n1CC1CC1 [Example 86, 1-(cyclopropylmethyl)-6-(4-morpholinophenyl)-1H-imidazo[4,5-b]pyrazin-2(3H)-one]	> 1000	–
COc1ccc(-c2cnc3[nH]c(=O)n(-c4ccc5[nH]ncc5c4)c3n2)cc1OC [Example 87, 6-(3,4-dimethoxyphenyl)-1-(1H-indazol-5-yl)-1H-imidazo[4,5-b]pyrazin-2(3H)-one]	> 1000	–
O=c1[nH]c2ncc(-c3ccncc3)nc2n1-c1ccc2[nH]ncc2c1 [Example 88, 1-(1H-indazol-5-yl)-6-(pyridin-4-yl)-1H-imidazo[4,5-b]pyrazin-2(3H)-one]	> 1000	–
O=c1[nH]c2ncc(-c3ccc(N4CCOCC4)cc3)nc2n1-c1ccc2[nH]ncc2c1 [Example 89, 1-(1H-indazol-5-yl)-6-(4-morpholinophenyl)-1H-imidazo[4,5-b]pyrazin-2(3H)-one]	> 1000	–
O=c1[nH]c2ncc(-c3ccc(O)cc3)nc2n1-c1ccc2cn[nH]c2c1 [Example 92, 6-(4-hydroxyphenyl)-1-(1H-indazol-6-yl)-1H-imidazo[4,5-b]pyrazin-2(3H)-one]	> 1000	–
COc1cc(OC)c(-c2cnc3[nH]c(=O)n(C4CCCC4)c3n2)c(OC)c1 [Example 94, 1-cyclopentyl-6-(2,4,6-trimethoxyphenyl)-1H-imidazo[4,5-b]pyrazin-2(3H)-one]	> 1000	–
Cc1cc(C)cc(-c2cnc3[nH]c(=O)n(-c4ccc5cn[nH]c5c4)c3n2)c1 [Example 95, 6-(3,5-dimethylphenyl)-1-(1H-indazol-6-yl)-1H-imidazo[4,5-b]pyrazin-2(3H)-one]	> 1000	–
O=c1[nH]c2ncc(-c3ccncc3)nc2n1-c1ccc2scnc2c1 [Example 98, 1-(benzo[d]thiazol-5-yl)-6-(pyridin-4-yl)-1H-imidazo[4,5-b]pyrazin-2(3H)-one]	> 1000	–
Cc1cc(C)cc(-c2cnc3[nH]c(=O)n(-c4ccc5scnc5c4)c3n2)c1 [Example 99, 1-(benzo[d]thiazol-5-yl)-6-(3,5-dimethylphenyl)-1H-imidazo[4,5-b]pyrazin-2(3H)-one]	> 1000	–

Now from value to compound:

IC50 [1] [nM]	IC50 [nM]	Structure (SMILES)
< 100	–	COc1ccc(-c2cnc3[nH]cc(-c4ccc5[nH]ccc5c4)c3n2)cc1OC [Example 37, 2-(3,4-dimethoxyphenyl)-7-(1H-indol-5-yl)-5H-pyrrolo[3,2-b]pyrazine]
< 100	–	COc1cc(-c2cnc3[nH]cc(-c4ccc5[nH]ccc5c4)c3n2)ccc1N [Example 38, 4-(7-(1H-indol-5-yl)-5H-pyrrolo[3,2-b]pyrazin-2-yl)-2-methoxyaniline]
< 100	–	COc1cc(-c2cnc3[nH]cc(-c4ccc5[nH]ccc5c4)c3n2)ccc1OCCN1CCOCC1 [Example 39, 4-(2-(4-(7-(1H-indol-5-yl)-5H-pyrrolo[3,2-b]pyrazin-2-yl)-2-methoxyphenoxy)ethyl)morpholine]
< 100	–	COc1cc(-c2cnc3[nH]c(=O)n(-c4ccc5[nH]ccc5c4)c3n2)cc(OC)c1OC [Example 40, 1-(1H-indol-5-yl)-6-(3,4,5-trimethoxyphenyl)-1H-imidazo[4,5-b]pyrazin-2(3H)-one]
> 1000	–	Cn1ccc2cc(-n3c(=O)[nH]c4ncc(-c5ccc(O)cc5)nc43)ccc21 [Example 42, 6-(4-hydroxyphenyl)-1-(1-methyl-1H-indol-5-yl)-1H-imidazo[4,5-b]pyrazin-2(3H)-one]
> 1000	–	Cc1cc(C)cc(-c2cnc3[nH]c(=O)n(-c4ccc5c(ccn5C)c4)c3n2)c1 [Example 43, 6-(3,5-dimethylphenyl)-1-(1-methyl-1H-indol-5-yl)-1H-imidazo[4,5-b]pyrazin-2(3H)-one]
> 1000	–	O=c1[nH]c2ncc(-c3ccncc3)nc2n1-c1ccc2[nH]ccc2c1 [Example 44, 1-(1H-indol-5-yl)-6-(pyridin-4-yl)-1H-imidazo[4,5-b]pyrazin-2(3H)-one]
> 1000	–	Cc1cc(C)cc(-c2cnc3[nH]c(=O)n(-c4ccc5[nH]ccc5c4)c3n2)c1 [Example 46, 6-(3,5-dimethylphenyl)-1-(1H-indol-5-yl)-1H-imidazo[4,5-b]pyrazin-2(3H)-one]
> 1000	–	O=c1[nH]c2ncc(-c3cc(Cl)cc(Cl)c3)nc2n1-c1ccc2[nH]ccc2c1 [Example 48, 6-(3,5-dichlorophenyl)-1-(1H-indol-5-yl)-1H-imidazo[4,5-b]pyrazin-2(3H)-one]
< 100	–	COc1cc(-c2cnc3[nH]c(=O)n(-c4ccc5[nH]ccc5c4)c3n2)ccc1O [Example 55, 6-(4-hydroxy-3-methoxyphenyl)-1-(1H-indol-5-yl)-1H-imidazo[4,5-b]pyrazin-2(3H)-one]
< 100	–	COc1cc(-c2cnc3[nH]c(=O)n(-c4ccc5[nH]ccc5c4)c3n2)ccc1OCCN1CCOCC1 [Example 57, 1-(1H-indol-5-yl)-6-(3-methoxy-4-(2-morpholinoethoxy)phenyl)-1H-imidazo[4,5-b]pyrazin-2(3H)-one]
< 100	–	O=c1[nH]c2ncc(-c3cc(F)c(O)c(F)c3)nc2n1-c1ccc2[nH]ccc2c1 [Example 59, 6-(3,5-difluoro-4-hydroxyphenyl)-1-(1H-indol-5-yl)-1H-imidazo[4,5-b]pyrazin-2(3H)-one]
< 100	–	COc1cc(-c2cnc3[nH]c(=O)n(-c4ccc5[nH]ccc5c4)c3n2)ccc1N [Example 60, 6-(4-amino-3-methoxyphenyl)-1-(1H-indol-5-yl)-1H-imidazo[4,5-b]pyrazin-2(3H)-one]
< 100	–	COc1cc(-c2cnc3[nH]c(=O)n(-c4ccc5[nH]ccc5c4)c3n2)cc(OC)c1O [Example 62, 6-(4-hydroxy-3,5-dimethoxyphenyl)-1-(1H-indol-5-yl)-1H-imidazo[4,5-b]pyrazin-2(3H)-one]
< 100	–	COc1cc(-c2cnc3[nH]c(=O)n(-c4ccc5[nH]c(C)cc5c4)c3n2)cc(OC)c1OC [Example 72, 1-(2-methyl-1H-indol-5-yl)-6-(3,4,5-trimethoxyphenyl)-1H-imidazo[4,5-b]pyrazin-2(3H)-one]
< 100	–	COc1cc(-c2cnc3[nH]c(=O)n(C4CCCC4)c3n2)cc(OC)c1OC [Example 74, 1-cyclopentyl-6-(3,4,5-trimethoxyphenyl)-1H-imidazo[4,5-b]pyrazin-2(3H)-one]
